From US10953027B2, “Active agents and methods of their use for the treatment of metabolic disorders and nonalcoholic fatty liver disease” (Flagship Pioneering Innovations V, Inc., priority 2018, dated 2021)

Legend:
[1] = tested on: Primary human subcutaneous adipocytes; test: Glucose uptake in human subcutaneous adipocytes, insulin resistant model; type: cell-based
Procedure: As described above, primary human subcutaneous adipocytes were differentiated for two weeks prior to treatment. To induce an insulin resistant state, cells were treated in serum free Dulbecco's Modified Eagle Medium (high glucose) and […] for 24 hours. Cells were simultaneously treated with compounds diluted in DMSO for 24 hours. As described above, after 24 hours, media was exchanged for assay buffer and the compounds were added again but in the presence of approximately 1 nM insulin. Cells were washed and lysed after 2 hours and glucose uptake was measured. […] Statistical changes in glucose uptake were determined by way ANOVA and compared to DMSO.

Mouse myocyte = Mouse myocyte lipolysis assay; type: cell-based
Mouse 3T3-L1 cells = test: Mouse adipocyte lipolysis assay; type: cell-based; details: 24 hours
Procedure: Once the cells became confluent, they were seeded into a tissue culture treated 96 well plate. […] After 14 days of differentiation, cells were treated with compounds of interest. After 24 hours post-treatment, the cell viability was assessed using CellTiter-Glo Luminescent Cell Viability Assay from Promega, and lipolysis was determined using Lipolysis Assay Kit from ZenBio.

Caco-2 colonocytes = test: Human Caco-2 barrier integrity assay (TEER); type: cell-based; details: 48 hours
Procedure: Caco-2 colonocytes were maintained at 37° C. and 5% CO2 in Dulbecco's Modified Eagle Medium (DMEM) and supplemented with 10% FBS, 1% NEAA, 1% penicillin-streptomycin. At 70-80% confluency, cells were trypsinized and seeded in 0.4 cm^2 transwell collagen I coated membranes with supplemented DMEM in both apical and basolateral compartments. Cells were seeded at a density of 200,000 cells per well and maintained for 10 days to form a polarized barrier with a TransEpithelial Electrial Resistance (TEER) reading above 1000Ω. On the first day of the assay, initial TEER readings were taken and cytokines were added to the basolateral media (50 ng/mL TNFα, 25 ng/mL IFNγ and 10 ng/mL IL-1β) to reduce barrier integrity while compounds diluted in (dimethylsulfoxide) DMSO were added to the apical media in triplicate. After 48 hours, TEER readings were taken again and viability was measured by CellTiter 96® AQueous One Solution Cell Proliferation Assay (Promega). The percent change in TEER over the 48 hours was determined and normalized to the 0.1% DMSO control (Table 6).

[2] = tested on: Primary human subcutaneous adipocytes; test: Glucose uptake in human subcutaneous adipocytes, insulin sensitive model; type: cell-based
Procedure: Primary human subcutaneous adipocytes (Zen Bio, Research Triangle Park, N.C.) were differentiated for two weeks prior to treatment. Cells were treated with indicated compounds diluted in (dimethyl-sulfoxide) DMSO in serum free medium for 24 hours in triplicate. After 24 hours, media was exchanged for assay buffer and the compounds were added again but in the presence of approximately 1 nM insulin. Glucose uptake was initiated with the addition of a cocktail containing 2-deoxyglucose and ^3H-2-deoxyglucose and allowed to incubate for 2 hours. Cells were washed, lysed and glucose uptake was measured as counts per well. As an assay control, 100 nM of insulin was used during the 2 hours of glucose uptake. […] Statistical changes in glucose uptake were determined by way ANOVA and compared to DMSO.

AhR = AhR activation in Caco-2 cells through CYP1A1 mRNA expression
Procedure: Caco-2 cells from American Type Culture Collection (ATCC) were plated in a sterile tissue culture treated 96-well plate (ThermoFisher) at […] per well, and grown overnight at 37° C., 5% CO2 in DMEM complete (Gibco) in order to achieve confluence. After the incubation medium was aspirated from the Caco-2 monolayers, tissues were then washed with 200 μL of warmed PBS solution, and subsequently 190 μL of pre-warmed growth medium was added to each well. Compounds of interest were diluted at a 20× concentration in growth medium containing 2% DMSO, and 10 μL of compound solutions were added to respective wells in triplicate. Compounds where incubated overnight at 37° C., 5% CO2. 2-(1′H-indole-3′-carbonyl)-thiazole-4-carboxylic acid methyl ester (ITE) was used as the positive control for AhR activation at 1 and 100 μM concentrations. At the end of the incubation, medium was aspirated off of the Caco-2 cells, and washed with 100 μL of cold PBS solution. RNA was extracted via the TaqMan™ Gene Expression Cells-to-CT™ Kit (ThermoFisher) according to the manufacturers protocol. The QuantStudio 6 Flex (Applied Biosciences) was used to analyze mRNA levels of CYP1A1 using GAPDH as the endogenous control. TaqMan™ probe sets for both genes were acquired from ThermoFisher. Samples were run in triplicate and data was analyzed using the QuantStudio software and reported as linear (Table 1) and log 2(ΔΔCT) values. Statistical analysis was performed using a two-tailed t-test comparing CYP1A1 levels in the presence of each individual compound to the vehicle negative control.

naïve CD4+ T cells = test: Human regulatory T cell differentiation assay; type: cell-based; details: 6 days
Outline: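 Naïve CD4+ T cells from healthy-donor PBMCs cultured 6 days in OpTmizer medium with 5 ng/ml TGF-β, 100 U/ml IL-2 and CD3/CD28/CD2 activator, with or without compound. Tregs (live CD4+CD3+CD25+FOXP3+, lineage-negative) measured by flow cytometry and expressed as % of total CD4+ T cells.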

DIO-NASH mice = test: DIO animal model of NAFLD/NASH (Example 15); type: in vivo; details: 0.03% in AMLN diet, vs DIO-NASH vehicle
Procedure: The effect of 8 weeks of treatment for the indicated compounds on metabolic liver disease in pre-biopsied, 43-week old male DIO-NASH mice was evaluated (12 animals per group). Male C57BL/6JRj mice were fed 40% fat (18% trans-fat), 40% carbohydrate (20% fructose), and 2% Cholesterol (AMLN) diet for 38 weeks. All mice entering the experiment were pre-biopsied stratified based on liver biopsy (only animals with fibrosis stage ≥1 and steatosis score ≥2 were included). Animals were randomized into groups based on Col1a1 immunostaining. Mice were treated for a total of 8 weeks of dosing (drugs in diet, ad lib). […] Elafibranor was supplied by the vendor. Body weight was measured daily for the entire study period. Food intake was monitored daily for first 14 days and then twice a week until study end. Day 28 collection of tail vein blood/serum and feces. Terminal plasma was collected for biomarker determination of liver transaminases (ALT, AST), triglyceride and cholesterol. Terminal liver was removed, weighed, and sampled for 1) FFPE (histology), 2) frozen (biochemistry and nucleic acid). Liver biopsy histology: pre- and post-treatment NAFLD Activity Score (HE) including Fibrosis Stage (PSR), 2) post-treatment steatosis (HE), 3) post-treatment lipid-droplet #+size (HE), 4) post-treatment Galectin-3 (IHC), 5) pre- and post-treatment Collagen 1a1 (IHC), 6) post-treatment α-SMA (IHC). […]

Compound	Insulin Resistant % DMSO (glucose uptake) ([1]; 100 nM)	Insulin Resistant % DMSO (glucose uptake) ([1]; 10 μM)	Free glycerol % DMSO (Mouse myocyte; 100 nM)	Free glycerol % DMSO (Mouse myocyte; 1 μM)	Lipolysis Free Fatty Acids % DMSO (Mouse 3T3-L1 cells; 100 nM)	Lipolysis Glycerol % change (Mouse 3T3-L1 cells; 100 nM)	Lipolysis Free Fatty Acids % DMSO (Mouse 3T3-L1 cells; 1 μM)	Lipolysis Glycerol % change (Mouse 3T3-L1 cells; 1 μM)	% Change in TEER from DMSO (Caco-2 colonocytes; 100 nM + cytokines)	% Change in TEER from DMSO (Caco-2 colonocytes; 1 μM + cytokines)	Insulin Sensitive % DMSO (glucose uptake) ([2]; 100 nM)	Insulin Sensitive % DMSO (glucose uptake) ([2]; 10 μM)	Average CYP1A1 mRNA levels (AhR; Conc. 0.1 μM)	Average CYP1A1 mRNA levels (AhR; Conc. 1.0 μM)	Cell viability % DMSO (naïve CD4+ T cells; 100 nM)	Treg induction % DMSO (naïve CD4+ T cells; 100 nM)	Cell viability % DMSO (naïve CD4+ T cells; 1 uM)	Treg induction % DMSO (naïve CD4+ T cells; 1 uM)	liver fibrosis, Picro Sirius red (FIG. 49B) (DIO-NASH mice)	liver morphology: lipid vacuole size (FIG. 48B) (DIO-NASH mice)
O=C(O[C@@H]1Cc2c(O)cc(O)cc2O[C@@H]1c1cc(O)c(O)c(O)c1)c1cc(O)c(O)c(O)c1 [EGCG, epigallocatechin gallate]	+ (110%> ≤140%: +)	= (50%> ≤110%: =)	+ (70%> <90%: +)	+ (70%> <90%: +)	++ (50> ≤70%: ++)	+ (70%> ≤90%: +)	++ (50> ≤70%: ++)	+ (70%> ≤90%: +)	− (≤125%: −)	− (≤125%: −)	= (50%> ≤110%: =)	= (50%> ≤110%: =)	− (− = +2-fold Vehicle)	− (− = +2-fold Vehicle)	= (90%≥ ≤110%: =)	= (90%≥ ≤110%: =)	= (90%≥ ≤110%: =)	= (90%≥ ≤110%: =)		
CSc1ccc(C(=O)/C=C/c2cc(C)c(OC(C)(C)C(=O)O)c(C)c2)cc1 [Elafibranor]																			the fibrosis is finer	the vacuoles are smaller
